# Experimental data as given in patent US20040038226A1, “Transgenic animal model by mineralocorticoid receptor antisense expression” (priority 2000, published 2004).
# Biological target: T1, mMR (Mus musculus, UniProt Q8VII8)
# T1 construct: the level of expression of the endogenous mMR observed in the control males; endogenous in cells; host or cells: whole mice in vivo: double transgenic alphaMHC-tTA/MR animals, with cardiac mMR mRNA lowered by about 50% by the antisense, and wild or single transgenic controls
# T1 sequence (Q8VII8 1-978): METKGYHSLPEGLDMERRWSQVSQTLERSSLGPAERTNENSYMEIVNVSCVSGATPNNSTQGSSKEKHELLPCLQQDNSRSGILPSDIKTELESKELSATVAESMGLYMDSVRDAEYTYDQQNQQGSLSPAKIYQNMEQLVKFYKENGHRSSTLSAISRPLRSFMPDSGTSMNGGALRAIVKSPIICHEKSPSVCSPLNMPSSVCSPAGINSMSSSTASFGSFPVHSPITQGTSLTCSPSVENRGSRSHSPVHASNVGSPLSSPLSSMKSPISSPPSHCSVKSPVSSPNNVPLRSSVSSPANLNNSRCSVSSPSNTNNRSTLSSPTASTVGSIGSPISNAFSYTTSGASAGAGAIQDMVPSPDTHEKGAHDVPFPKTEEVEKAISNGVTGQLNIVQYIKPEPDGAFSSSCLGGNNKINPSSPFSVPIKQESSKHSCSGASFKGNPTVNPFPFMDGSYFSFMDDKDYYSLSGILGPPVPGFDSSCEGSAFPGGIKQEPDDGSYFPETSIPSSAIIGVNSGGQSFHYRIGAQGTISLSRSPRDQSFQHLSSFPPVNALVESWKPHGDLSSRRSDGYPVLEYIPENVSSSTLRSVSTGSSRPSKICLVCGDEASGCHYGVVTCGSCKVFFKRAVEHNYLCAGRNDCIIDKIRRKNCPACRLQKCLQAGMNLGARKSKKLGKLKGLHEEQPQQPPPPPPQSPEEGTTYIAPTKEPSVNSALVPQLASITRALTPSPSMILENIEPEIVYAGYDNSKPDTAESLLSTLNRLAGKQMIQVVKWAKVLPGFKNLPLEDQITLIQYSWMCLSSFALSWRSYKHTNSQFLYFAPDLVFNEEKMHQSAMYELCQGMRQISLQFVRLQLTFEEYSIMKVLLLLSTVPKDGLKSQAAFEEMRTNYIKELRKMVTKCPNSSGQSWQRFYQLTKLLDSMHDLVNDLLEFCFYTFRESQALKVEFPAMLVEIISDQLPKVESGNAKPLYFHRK
# Experiment: Administration of spironolactone to control animals (wild or single transgenic)
# Assay type: in vivo, mice
# Details: 30 mg/kg/day
structure (smiles),measurement,value
CC(=O)S[C@@H]1CC2=CC(=O)CC[C@]2(C)[C@H]2CC[C@@]3(C)[C@@H](CC[C@@]34CCC(=O)O4)[C@H]12 [spironolactone],functional or structural alteration of the heart,does not produce any functional or structural alteration
